Measured values from US8440442B2, “Method of assaying 5-FU” (Myriad Genetics, Inc, priority 2009, dated 2013).

Experiments:
[1] = molecular target: T1, dihydropyrimidine dehydrogenase (DPD) (Homo sapiens, UniProt Q12882); test: 5-Vinyluracil, 5-iodouracil and gimeracil as stabilizer of 5-FU in spiked donor blood; assay type: biochemical; settings: 500 ng/mL 5-FU; 5-iodouracil 10/40 μg/mL, 5-vinyluracil 5/20 μg/mL, gimeracil 300/1,200 ng/mL; 45 minutes room temperature (FIG. 3)
T1 construct: from tissue; host or cells: donor whole blood (K2EDTA), plasma separated from it, and WBC/buffy coat
T1 sequence (Q12882 4-1025): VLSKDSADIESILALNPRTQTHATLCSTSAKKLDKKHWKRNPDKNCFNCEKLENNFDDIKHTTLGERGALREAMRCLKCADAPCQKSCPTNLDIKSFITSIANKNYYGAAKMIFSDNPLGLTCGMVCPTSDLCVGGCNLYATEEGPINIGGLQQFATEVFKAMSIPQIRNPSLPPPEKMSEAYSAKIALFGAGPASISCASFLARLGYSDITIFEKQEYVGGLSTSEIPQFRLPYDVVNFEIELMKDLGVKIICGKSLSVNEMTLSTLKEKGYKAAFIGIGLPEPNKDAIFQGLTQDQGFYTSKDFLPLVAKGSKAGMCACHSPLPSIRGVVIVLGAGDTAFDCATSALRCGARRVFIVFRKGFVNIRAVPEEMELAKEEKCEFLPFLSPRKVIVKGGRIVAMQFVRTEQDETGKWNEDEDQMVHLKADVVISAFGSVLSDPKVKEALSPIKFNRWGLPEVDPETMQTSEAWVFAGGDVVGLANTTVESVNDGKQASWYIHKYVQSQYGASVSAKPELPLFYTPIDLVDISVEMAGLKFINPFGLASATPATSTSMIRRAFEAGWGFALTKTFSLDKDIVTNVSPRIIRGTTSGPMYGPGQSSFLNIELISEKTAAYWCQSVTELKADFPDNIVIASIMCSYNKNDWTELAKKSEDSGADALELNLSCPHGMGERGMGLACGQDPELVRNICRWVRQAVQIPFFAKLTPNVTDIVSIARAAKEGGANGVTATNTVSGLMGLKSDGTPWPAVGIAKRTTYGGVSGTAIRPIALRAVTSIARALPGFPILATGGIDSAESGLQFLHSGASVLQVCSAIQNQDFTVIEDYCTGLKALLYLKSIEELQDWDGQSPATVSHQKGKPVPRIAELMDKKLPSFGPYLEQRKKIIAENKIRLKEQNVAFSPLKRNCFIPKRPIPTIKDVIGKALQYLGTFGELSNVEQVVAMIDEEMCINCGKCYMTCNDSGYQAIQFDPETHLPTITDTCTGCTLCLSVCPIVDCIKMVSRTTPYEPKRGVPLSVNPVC
Protocol: (§1) In the following illustrative examples, 5-FU was measured using an antibody-based agglutination assay on the Olympus AU680 Analyzer using an antibody disclosed in U.S. Pat. No. 7,205,116. Specifically, the concentration of 5-FU in a sample is determined based on the absorbance of a sample, which is determined by the amount of aggregation by the nanoparticles. The system requires two reagents, which when mixed in the absence of free 5-FU will form large aggregates of nanoparticles and scatter light to result in a higher absorption value. In the presence of free 5-FU, the agglutination reaction becomes somewhat inhibited and scattering of light is less, causing a lower absorption value. The instrument is calibrated twice monthly, and a curve is generated (Absorbance vs. 5-FU concentration). Absorbance values from individual samples are compared against this curve to determine concentration.
(§2) Generally in the agglutination assay, 95 μl of a buffer containing 5-FU-labeled amino-dextran is pipetted to a cuvette, followed by 7 μL of a filtered plasma sample. The sample and reagent are mixed and then incubated for about 3.5 minutes. 95 μl of 5-FU antibody-conjugated nanoparticles is pipetted into the cuvette and mixed. The complete reaction incubates for about 6.2 minutes. A series of 27 measurements at 600 nm are taken at regular intervals by the AU680 analyzer throughout this process, and 5-FU concentration is calculated using the measurements from two specific time points.
Three tubes of blood (spray-on K2EDTA tubes, 10 mL) was drawn from each of six donors, and blood tubes were gently inverted several times to mix anti-coagulant. Blood was pooled and kept separate by donor. An aliquot of each blood sample was transferred to a new conical tube, and a calculated volume of stock 5-FU (at 200 ng/μL) was spiked into each blood sample for a final concentration of 500 ng/mL 5-FU. Each blood sample was aliquotted to a set of four tubes (5 mL blood per tube). Each set of tubes was different, but included a combination of the conditions below: […]

[2] = molecular target: T1, dihydropyrimidine dehydrogenase (DPD); test: Eniluracil as stabilizer of 5-FU in spiked donor blood (5-FU agglutination immunoassay); assay type: biochemical; settings: eniluracil 4000 or 1000 ng/mL final in blood, DMSO; 500 ng/mL 5-FU; room temperature 45 minutes or 24 hours (FIG. 2)
Protocol: as §1
as §2, with “95 μl of 5-FU antibody-conjugated nanoparticles is pipetted into the cuvette and mixed. The complete reaction incubates for about 6.2 minutes.” left out, “points. […]” for “points.”

| stabilizing 5-FU in blood samples [1] | preventing degradation of 5-FU in blood samples [2] | Compound |
| --- | --- | --- |
| effective |  | O=c1[nH]cc(I)c(=O)[nH]1 [5-iodouracil] |
| effective |  | C=Cc1c[nH]c(=O)[nH]c1=O [5-vinyluracil] |
|  | effective | C#Cc1c[nH]c(=O)[nH]c1=O [eniluracil] |
